BindingDB's records for doi:10.1111/cbdd.12843 (Key Laboratory for Neurodegenerative Diseases of Ministry …, 2017)

Target: D(2) dopamine receptor (Homo sapiens, UniProt P14416)
Assay: Dopamine D2 Receptor Activity Assay
Details: 37 °C
Procedure: D2 receptor/G protein α16a co-transfected HEK293 cells (from the Shanghai Institute of Materia Medica, Chinese Academy of Sciences) were seeded in 96-wellplates and incubated overnight at 37 °C. The media were then removed, and 40 μL of 10 μM Fluo-4/AM (a calcium fluorescent probe) (Invitrogen Corporation, Carlsbad, CA, USA) was added. The plates were then incubated for 40 min at 37 °C. After the supernatant was discarded and the cells were washed with calcium buffer, 50 μL of calcium buffer containing tested compounds at the dosage range from 0.01 nM to 10 μM was added, and the plates were incubated for 10 min. The fluorescence values at an emission wavelength of 525 nm and an excitation wavelength of 485 nm were detected by the FlexStation II microplate reader (Molecular Devices, San Francisco, CA, USA), starting 15 s after 25 μL of calcium buffer containing 50 nM dopamine (an agonist of the dopamine D2 receptor) (Sigma-Aldrich, Saint Louis, MO,USA) was automatically added by the instrument.

D(2) dopamine receptor, sequence (P14416 whole entry): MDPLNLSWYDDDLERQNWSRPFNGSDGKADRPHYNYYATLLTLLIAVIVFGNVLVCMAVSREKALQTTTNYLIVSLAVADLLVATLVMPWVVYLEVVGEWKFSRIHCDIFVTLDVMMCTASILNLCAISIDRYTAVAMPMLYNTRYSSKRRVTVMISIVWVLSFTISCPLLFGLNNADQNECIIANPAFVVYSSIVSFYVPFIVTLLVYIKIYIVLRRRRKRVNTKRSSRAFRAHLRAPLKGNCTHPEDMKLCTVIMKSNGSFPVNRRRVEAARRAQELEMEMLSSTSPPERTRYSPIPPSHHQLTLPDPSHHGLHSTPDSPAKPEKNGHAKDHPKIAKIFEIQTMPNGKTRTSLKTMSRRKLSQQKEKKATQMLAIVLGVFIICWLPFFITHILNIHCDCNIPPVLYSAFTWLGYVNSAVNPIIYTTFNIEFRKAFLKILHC

| Compound | IC50 |
| --- | --- |
| O=C1C[C@@H](c2ccc(F)cc2)Oc2cc(OCCCCN3CCC(c4noc5cc(F)ccc45)CC3)cc(O)c21 [5-Hydroxy-2-(4-fluorophenyl)-7-(4-(4-(6-fluorobenzo[d]isoxazol-3-yl)piperidin-1-yl)butoxy)chroman-4-one (7e)] | 87.7 nM |
| COc1ccc([C@@H]2CC(=O)c3c(O)cc(OCCCCN4CCN(c5ccccc5OC)CC4)cc3O2)cc1 [5-Hydroxy-2-(4-methoxyphenyl)-7-(4-(4-(2-methoxyphenyl)piperazin-1-yl)butoxy)chroman-4-one (7a)] | 205 nM |
| COc1ccc([C@@H]2CC(=O)c3c(O)cc(OCCCN4CCN(c5ccccc5OC)CC4)cc3O2)cc1 [5-Hydroxy-2-(4-methoxyphenyl)-7-(4-(4-(2-methoxyphenyl)piperazin-1-yl)propoxy)chroman-4-one (7f)] | 220 nM |
| COc1ccc([C@@H]2CC(=O)c3c(O)cc(OCCCCN4CCC(c5noc6cc(F)ccc56)CC4)cc3O2)cc1 [5-Hydroxy-2-(4-methoxyphenyl)-7-(4-(4-(6-fluorobenzo[d]isoxazol-3-yl)piperidin-1-yl)butoxy)chroman-4-one (7d)] | 51.3 nM |
| COc1ccc([C@@H]2CC(=O)c3c(O)cc(OCCCN4CCC(c5noc6cc(F)ccc56)CC4)cc3O2)cc1 [5-Hydroxy-2-(4-methoxyphenyl)-7-(4-(4-(6-fluorobenzo[d]isoxazol-3-yl)piperidin-1-yl)propoxy)chroman-4-one (7g)] | 116 nM |
| COc1ccccc1N1CCN(CCCCOc2cc(O)c3c(c2)O[C@H](c2ccc(C)cc2)CC3=O)CC1 [5-Hydroxy-2-(4-methylphenyl)-7-(4-(4-(2-methoxyphenyl)piperazin-1-yl)butoxy)chroman-4-one (7b)] | 346 nM |
| COc1ccccc1N1CCN(CCCCOc2cc(O)c3c(c2)O[C@H](c2ccc(F)cc2)CC3=O)CC1 [5-Hydroxy-2-(fluorophenyl)-7-(4-(4-(2-methoxyphenyl)piperazin-1-yl)butoxy)chroman-4-one (7c)] | 57.3 nM |
